Experimental data as given in US20160220630A1, “AGONISTS OF GUANYLATE CYCLASE USEFUL FOR THE TREATMENT OF OPIOID INDUCED DYSFUNCTIONS” (priority 2013, published 2016).
“Also recorded” adds a separate entry of the source. Positions of bridges follow the written chain, without caps; N, C: chain ends. Non-standard residues stand in square brackets, D forms with d. Residues, ends and D or L forms follow the SMILES beside them.

Legend:
T84 cells = assay: Short circuit current (Isc) in Ussing chamber across T84 cells monolayer
rat jejunum = assay: Short circuit current (Isc) in Ussing chamber across rat jejunum tissue; details: for inhibition of SP-333-stimulated Isc: inhibitor pretreatment 5 min, 1 μM SP-333
[1] = tested on: female Sprague-Dawley CD rats; assay: GI transit delay induced by repeated methadone administration; assay type: in vivo, rat; details: for GI transit after repeated methadone dosing (words): repeated daily IP methadone (5 then 2.5 mg/kg)
Method: The ability of SP-333 to alleviate GI transit delay induced by repeated methadone administration was also evaluated in the similar manner. Female Sprague-Dawley CD rats 7 to 8 weeks of age (n=7/group) received via IP injection 16 doses of methadone (once daily; 7 doses @ 5 mg/kg and 9 doses @ 2.5 mg/kg). Ten minutes following each methadone dose, each group received an oral gavage of vehicle, 2.5, and 5 mg/kg of SP-333. At the end of the dosing regimen, animals were fasted overnight and GI transit was evaluated as described above.

[2] = tested on: female Sprague-Dawley CD rats; assay: Methadone-induced constipation (fecal pellet output); assay type: in vivo, rat
Method: Effect of SP-333 on methadone-induced constipation in rats: To identify the methadone dose that induces constipation in rats, female Sprague-Dawley CD rats 7 to 8 weeks of age (n=6/group) were administered 0 (vehicle), 2.5, 5, and 7.5 mg/kg of methadone (1.5 ml/kg dose volume) by IP injection once a day for 5 days. Fecal pellets were collected at 4 h intervals during the light cycle and average number of pellets was recorded for each group during the course of the study following daily dose administrations of methadone.
To evaluate the ability of SP-333 to relieve methadone-induced constipation, female Sprague-Dawley CD rats 7 to 8 weeks of age (n=7/group) were administered 5 mg/kg of methadone (or vehicle) each day for 7 days via IP injection to induce constipation. Ten minutes following the IP dose each day, an oral gavage of 2.5, and 5 mg/kg of SP-333 or vehicle (buffer) was administered. Fecal pellets were collected at 4 h intervals during the light cycle and average number of pellets recorded for each group during the course of the study following daily administration of vehicle, methadone or combination of methadone and SP-333.

[3] = tested on: female Sprague-Dawley rats; assay: Reversal of morphine-induced delayed GI transit by oral SP-333; assay type: in vivo, rat
Method: (§1) Effect of SP-333 on opioid-induced GI transit delay in rats: The ability of opioids to delay GI transit in rats was tested by either administering 0 (vehicle) 0.25, 1 and 2.5 mg/kg of morphine or 0 (vehicle), 0.25, 2.5 and 5 mg/kg of methadone (1.5 ml/kg dose volume) by IP injection. Water served as vehicle control. Ten minutes later, a 2 mL charcoal meal consisting of 10% activated charcoal (Sigma-Aldrich, St. Louis, Mo.) and 10% gum Arabic (Sigma-Aldrich, St. Louis, Mo.) in water was administered via oral gavage. Rats were euthanized 10 min after the charcoal meal via IP injection of 150 mg/kg Beuthanasia-D solution (sodium pentobarbital, 390 mg/mL). The small intestine was removed and the total length from the pyloric sphincter to the ileocecal junction was recorded, as well as the distance travelled by the leading edge of the charcoal. Intestinal transit was determined by calculating the ratio (expressed as a percentage) of the distance between the pyloric sphincter and the leading edge of the charcoal to the distance between the pyloric sphincter and the ileocecal junction.
To evaluate the ability of SP-333 to reverse morphine induced delayed GI transit, animals were administered 2.5 mg/kg of morphine by IP injection followed immediately by oral gavage of 0 (vehicle), 0.5, 2.5, 5 and 50 mg/kg of SP-333 (1.5 ml/kg dose volume). Water served as vehicle control. Charcoal meal was administered ten minutes later and animals were euthanized ten minutes after the charcoal meal and intestinal transit was calculated as described above.

[4] = tested on: female Sprague-Dawley rats; assay: GI transit (charcoal meal) after single oral SP-333 in opioid naïve rats; assay type: in vivo, rat
Method: FIGS. 7A-B is a series of graphs showing that oral treatment with SP-333 increases GI transit in rats. […] Panel A is a bar graph showing that SP-333 increases GI transit by 5.6%, 13%, and 23% at 0.05, 0.5, and 5 mg/kg, respectively in opioid naïve animals. Panel B is a distribution graph showing the data of each individual animal.
as §1

[5] = tested on: female Sprague-Dawley rats; assay: Reversal of methadone-induced delayed GI transit by oral SP-333; assay type: in vivo, rat
Method: as §1
To evaluate the ability of SP-333 to reverse methadone induced delayed GI transit, animals were administered 2.5 mg/kg of methadone by IP injection. Ten minutes later, an oral gavage of 0 (vehicle), 0.1, 0.5, 2.5, 5 and 50 mg/kg of SP-333 (1.5 ml/kg dose volume) was administered followed immediately by a 2 mL oral gavage of the charcoal meal. Ten minutes after the charcoal meal, animals were euthanized and intestinal transit was calculated as described above.

[6] = tested on: female Sprague-Dawley rats; assay: Opioid-induced GI transit delay after single IP opioid dose (charcoal meal); assay type: in vivo, rat
Method: Animals: All study procedures were conducted under a study outline approved by the Institutional Animal Care and Use Committee of MB Research Labs (Spinnerstown, Pa.) or Lampire Biological Laboratories (Pipersville, Pa.). Seven to eight week old female Sprague-Dawley rats [Crl:CD(SD)], weighing between ˜180-210 grams, were obtained from Charles River Laboratories and allowed to acclimate for a week. Animals were maintained on a 12 hour light-dark cycle. For intestinal tissue collection and evaluation of GI transit, rats were fasted for at least 18 hours before the experiment, with free access to water.
as §1

[7] = 5 μM morphine apical 5 min, then 1 μM SP-333
[8] = 5 μM methadone apical 5 min, then 1 μM SP-333

## [Cl][Cd][Cl] [CdCl2]
T84 cells; CdCl2 300 μM or mPKI 3.2 μM, 1 μM SP-333
  decrease in SP-333-stimulated Isc: No appreciable decrease; also recorded: minimal effect
Rat jejunum
  inhibition of SP-333-stimulated Isc: minimal effect

## CC(C)C[C@@H]1NC(=O)[C@H](CCC(=O)O)NC(=O)[C@@H](NC(=O)[C@H](CCC(=O)O)NC(=O)[C@H](CC(=O)O)NC(=O)[C@H](N)CC(N)=O)CSSC[C@@H]2NC(=O)[C@H](C)NC(=O)[C@H](C(C)C)NC(=O)[C@H](CC(N)=O)NC(=O)[C@H](C(C)C)NC(=O)[C@H](CSSC[C@@H](C(=O)N[C@H](CC(C)C)C(=O)O)NC(=O)CNC(=O)[C@H]([C@@H](C)O)NC2=O)NC1=O [SP-333, dAsn^1-Asp^2-Glu^3-Cys^4-Glu^5-Leu^6-Cys^7-Val^8-Asn^9-Val^10-Ala^11-Cys^12-Thr^13-Gly^14-Cys^15-dLeu^16] (H-[dN]DECELCVNVACTGC[dL]-OH; disulfide 4-12, 7-15)
[1]; repeated daily IP methadone (5 then 2.5 mg/kg) + SP-333 2.5 and 5 mg/kg oral
  GI transit delay after repeated methadone dosing: normalized GI transit; also recorded: relieved the GI-transit delay; also recorded: statistically significant improvement in GI transit delay
[2]; methadone 5 mg/kg IP + SP-333 2.5 mg/kg oral, once daily 7 days
  fecal pellet count compared to the methadone dosed group without SP-333: threefold increase; also recorded: significantly relieved methadone-induced constipation
[2]; methadone 5 mg/kg IP + SP-333 2.5 and 5 mg/kg oral, once daily 7 days
  fecal output / average number of pellets: partially restored fecal output; also recorded: higher compared to the methadone dosed group
[3]; morphine 2.5 mg/kg IP + SP-333 0.5 mg/kg oral
  GI transit in morphine-treated rats: 27%
[3]; morphine 2.5 mg/kg IP + SP-333 2.5 mg/kg oral
  GI transit in morphine-treated rats: 37%
[3]; morphine 2.5 mg/kg IP + SP-333 5 mg/kg oral
  GI transit in morphine-treated rats: 46%
[3]; morphine 2.5 mg/kg IP + SP-333 50 mg/kg oral
  GI transit in morphine-treated rats: 48%
[3]; morphine 2.5 mg/kg IP, SP-333 oral
  SP-333 dose sufficient to relieve the effect of morphine on GI transit: 5 mg/kg
[3]; orally administered SP-333
  delay in GI transit caused by morphine: completely restored the delay in GI transit
[4]; SP-333 0.05 mg/kg single oral gavage
  increase in GI (small intestinal) transit compared to vehicle controls: 5.6%
[4]; SP-333 0.5 mg/kg single oral gavage
  increase in GI (small intestinal) transit compared to vehicle controls: 13%
[4]; SP-333 5 mg/kg single oral gavage
  increase in GI (small intestinal) transit compared to vehicle controls: 23%
T84 cells; SP-333 0.01-10 μM apical
  increase in Isc (chloride currents): concentration-dependent increase in Isc approaching saturation at 10 μM
Rat jejunum; SP-333 0.01-10 μM apical
  increase in Isc (chloride currents): concentration-dependent increase in Isc approaching saturation at 10 μM
[5]; methadone 2.5 mg/kg IP + SP-333 0.5 mg/kg oral
  GI transit in methadone-treated rats: 40%
[5]; methadone 2.5 mg/kg IP + SP-333 2.5 mg/kg oral
  GI transit in methadone-treated rats: 39%
[5]; methadone 2.5 mg/kg IP + SP-333 5 mg/kg oral
  GI transit in methadone-treated rats: 44%
[5]; methadone 2.5 mg/kg IP + SP-333 50 mg/kg oral
  GI transit in methadone-treated rats: 52%
[5]; methadone 2.5 mg/kg IP, SP-333 oral
  SP-333 dose sufficient to relieve the effect of methadone on GI transit: 5 mg/kg
[5]; orally administered SP-333
  delay in GI transit caused by methadone: completely restored the delay in GI transit

## O=C(O)c1ccc(/C=C2\SC(=S)N(c3cccc(C(F)(F)F)c3)C2=O)cc1 [CFTRinh172]
T84 cells; 10 μM CFTRinh172, compared with 1 μM SP-333 alone
  suppression in SP-333-stimulated Isc: 80%
Rat jejunum
  inhibition of SP-333-stimulated Isc: less compared to that detected in T84 cells

## COC(=O)[C@@]1(OC)C[C@H]2O[C@]1(C)n1c3ccccc3c3c4c(c5c6ccccc6n2c5c31)C(=O)N(C)C4 [PKG-II inhibitor]
T84 cells; PKG-II inhibitor 4 μM, 1 μM SP-333
  suppression of relative SP-333-stimulated Isc: approximately 35%

## CN1CC[C@]23c4c5ccc(O)c4O[C@H]2[C@@H](O)C=C[C@H]3[C@H]1C5 [morphine]
T84 cells; [7]
  effect of morphine pre-treatment on SP-333-stimulated Isc: negligible effect; also recorded: not adversely affected
Rat jejunum; [7]
  effect of morphine pre-treatment on SP-333-stimulated Isc: negligible effect; also recorded: not adversely affected
[6]; morphine 2.5 mg/kg IP single dose
  GI transit slowed by, compared to vehicle controls: 56%
[6]; morphine IP 0.25, 1.0 and 2.5 mg/kg
  effect of morphine on GI transit: significantly reduced GI transit

## CCC(=O)C(CC(C)N(C)C)(c1ccccc1)c1ccccc1 (stereo not shown) [methadone]
[1]
  GI transit after repeated methadone dosing (words): significant delay in GI transit
[1]; listed as Methadone
  GI transit after repeated methadone dosing (words): significant reduction in GI transit
[2]; daily IP methadone 2.5, 5 and 7.5 mg/kg
  effect of methadone on fecal output: drastically reduced daily fecal output; also recorded: statistically significant reduction in fecal output
T84 cells; [8]
  effect of methadone pre-treatment on SP-333-stimulated Isc: no effect; also recorded: not adversely affected
Rat jejunum; [8]
  effect of methadone pre-treatment on SP-333-stimulated Isc: no effect; also recorded: not adversely affected
[6]; IP
  methadone dose sufficient to significantly reduce GI transit: 2.5 mg/kg
[6]; methadone 2.5 mg/kg IP
  GI transit delay vs corresponding vehicle controls: 49%
[6]; methadone 0.25, 2.5 and 5 mg/kg IP
  effect of methadone on GI transit: significantly reduced GI transit; also recorded: statistically significant reduction in GI transit
